Source: PubChem BioAssay (NCI)
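Growth conditions: 96-well plates. Treatment: test compound, 48 hours, 5 concentrations. Analysis: linear interpolation between bracketing concentrations; unreached endpoints set to highest concentration. The concentration for 50% growth inhibition is given as GI50. TGI: concentration producing complete growth inhibition.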

How the values were obtained:
Test in all cases: NCI tumour cell line growth inhibition, 48 h
UO-31 renal = tested on: UO-31 renal
HL-60(TB) leukemia = tested on: HL-60(TB) leukemia
786-0 renal = tested on: 786-0 renal
PC-3 prostate = tested on: PC-3 prostate
ACHN renal = tested on: ACHN renal
M14 melanoma = tested on: M14 melanoma
SW-620 colon = tested on: SW-620 colon
SK-MEL-28 melanoma = tested on: SK-MEL-28 melanoma
A498 renal = tested on: A498 renal
TK-10 renal = tested on: TK-10 renal
EKVX NSCLC = tested on: EKVX NSCLC
SR leukemia = tested on: SR leukemia
NCI-H23 lung = tested on: NCI-H23 lung
SNB-19 CNS = tested on: SNB-19 CNS
HCT-15 colon = tested on: HCT-15 colon
T-47D breast = tested on: T-47D breast
CCRF-CEM leukemia = tested on: CCRF-CEM leukemia
UACC-62 melanoma = tested on: UACC-62 melanoma
U251 CNS = tested on: U251 CNS
BT-549 breast = tested on: BT-549 breast
SNB-75 CNS = tested on: SNB-75 CNS
RXF 393 renal = tested on: RXF 393 renal
DU-145 prostate = tested on: DU-145 prostate
SF-268 CNS = tested on: SF-268 CNS
COLO 205 colon = tested on: COLO 205 colon
HOP-92 NSCLC = tested on: HOP-92 NSCLC
MCF7 breast = tested on: MCF7 breast
A549 NSCLC = tested on: A549 NSCLC
SF-539 CNS = tested on: SF-539 CNS
RPMI-8226 leukemia = tested on: RPMI-8226 leukemia
HCC-2998 colon = tested on: HCC-2998 colon
UACC-257 melanoma = tested on: UACC-257 melanoma
IGROV1 ovarian = tested on: IGROV1 ovarian
HOP-62 NSCLC = tested on: HOP-62 NSCLC
K-562 leukemia = tested on: K-562 leukemia
MOLT-4 leukemia = tested on: MOLT-4 leukemia
SK-OV-3 ovarian = tested on: SK-OV-3 ovarian
HS 578T breast = tested on: HS 578T breast
MDA-MB-435 = tested on: MDA-MB-435
OVCAR-4 ovarian = tested on: OVCAR-4 ovarian
NCI-H522 lung = tested on: NCI-H522 lung
NCI/ADR-RES ovarian = tested on: NCI/ADR-RES ovarian
SN12C renal = tested on: SN12C renal
OVCAR-3 ovarian = tested on: OVCAR-3 ovarian
KM12 colon = tested on: KM12 colon
SF-295 CNS = tested on: SF-295 CNS
MDA-MB-231 breast = tested on: MDA-MB-231 breast
OVCAR-5 ovarian = tested on: OVCAR-5 ovarian
NCI-H460 lung = tested on: NCI-H460 lung
OVCAR-8 ovarian = tested on: OVCAR-8 ovarian
CAKI-1 renal = tested on: CAKI-1 renal
HT29 colon = tested on: HT29 colon
SK-MEL-5 melanoma = tested on: SK-MEL-5 melanoma
NCI-H226 lung = tested on: NCI-H226 lung
HCT-116 colon = tested on: HCT-116 colon
LOX IMVI melanoma = tested on: LOX IMVI melanoma
MALME-3M melanoma = tested on: MALME-3M melanoma

SMILES: COC1=CC(c2ccc[nH]2)=N/C1=C\c1[nH]c(C)c(C(=O)CCCCC(=O)NCc2ccccc2)c1C
- GI50 (UO-31 renal): 2.26 µM
- TGI (UO-31 renal): 8.81 µM
- GI50 (HL-60(TB) leukemia): 2.2 µM
- TGI (HL-60(TB) leukemia): 7.33 µM
- GI50 (786-0 renal): 2.4 µM
- TGI (786-0 renal): 6.69 µM
- GI50 (PC-3 prostate): 1.57 µM
- TGI (PC-3 prostate): 3.99 µM
- GI50 (ACHN renal): 2.49 µM
- TGI (ACHN renal): 8.11 µM
- GI50 (M14 melanoma): 2.68 µM
- TGI (M14 melanoma): 7.36 µM
- GI50 (SW-620 colon): 1.06 µM
- TGI (SW-620 colon): 2.58 µM
- GI50 (SK-MEL-28 melanoma): 2.07 µM
- TGI (SK-MEL-28 melanoma): 4.64 µM
- GI50 (A498 renal): 15.5 µM
- TGI (A498 renal): 35.3 µM
- GI50 (TK-10 renal): 2.15 µM
- TGI (TK-10 renal): 4.63 µM
- GI50 (EKVX NSCLC): 4.2 µM
- TGI (EKVX NSCLC): 18.1 µM
- GI50 (SR leukemia): 1.14 µM
- TGI (SR leukemia): 3.3 µM
- GI50 (NCI-H23 lung): 2.47 µM
- TGI (NCI-H23 lung): 11 µM
- GI50 (SNB-19 CNS): 8.76 µM
- TGI (SNB-19 CNS): 24 µM
- GI50 (HCT-15 colon): 0.845 µM
- TGI (HCT-15 colon): 2.25 µM
- GI50 (T-47D breast): 2.34 µM
- TGI (T-47D breast): 7.23 µM
- GI50 (CCRF-CEM leukemia): 0.673 µM
- TGI (CCRF-CEM leukemia): 6.98 µM
- GI50 (UACC-62 melanoma): 8.85 µM
- TGI (UACC-62 melanoma): 22.8 µM
- GI50 (U251 CNS): 1.43 µM
- TGI (U251 CNS): 2.95 µM
- GI50 (BT-549 breast): 2.1 µM
- TGI (BT-549 breast): 7.12 µM
- GI50 (SNB-75 CNS): 3.72 µM
- TGI (SNB-75 CNS): 15.1 µM
- GI50 (RXF 393 renal): 1.9 µM
- TGI (RXF 393 renal): 4.58 µM
- GI50 (DU-145 prostate): 1.64 µM
- TGI (DU-145 prostate): 3.53 µM
- GI50 (SF-268 CNS): 1.82 µM
- TGI (SF-268 CNS): 6.04 µM
- GI50 (COLO 205 colon): 2.37 µM
- GI50 (HOP-92 NSCLC): 1.65 µM
- TGI (HOP-92 NSCLC): 4.63 µM
- GI50 (MCF7 breast): 1.6 µM
- TGI (MCF7 breast): 3.44 µM
- GI50 (A549 NSCLC): 3.56 µM
- TGI (A549 NSCLC): 16.9 µM
- GI50 (SF-539 CNS): 4.66 µM
- TGI (SF-539 CNS): 15.8 µM
- GI50 (RPMI-8226 leukemia): 2.56 µM
- TGI (RPMI-8226 leukemia): 6.52 µM
- GI50 (HCC-2998 colon): 3.16 µM
- TGI (HCC-2998 colon): 12.2 µM
- GI50 (UACC-257 melanoma): 18.6 µM
- TGI (UACC-257 melanoma): 38.5 µM
- GI50 (IGROV1 ovarian): 3.36 µM
- TGI (IGROV1 ovarian): 14.7 µM
- GI50 (HOP-62 NSCLC): 2.87 µM
- TGI (HOP-62 NSCLC): 10.2 µM
- GI50 (K-562 leukemia): 1.73 µM
- TGI (K-562 leukemia): 4.72 µM
- GI50 (MOLT-4 leukemia): 1.09 µM
- TGI (MOLT-4 leukemia): 3.09 µM
- GI50 (SK-OV-3 ovarian): 14.8 µM
- TGI (SK-OV-3 ovarian): 31.1 µM
- GI50 (HS 578T breast): 1.98 µM
- TGI (HS 578T breast): 4.43 µM
- GI50 (MDA-MB-435): 1.61 µM
- TGI (MDA-MB-435): 3.72 µM
- GI50 (OVCAR-4 ovarian): 6.31 µM
- TGI (OVCAR-4 ovarian): 23.4 µM
- GI50 (NCI-H522 lung): 1.95 µM
- TGI (NCI-H522 lung): 6.09 µM
- GI50 (NCI/ADR-RES ovarian): 2.17 µM
- TGI (NCI/ADR-RES ovarian): 5.36 µM
- GI50 (SN12C renal): 3.82 µM
- TGI (SN12C renal): 18.4 µM
- GI50 (OVCAR-3 ovarian): 1.43 µM
- TGI (OVCAR-3 ovarian): 2.89 µM
- GI50 (KM12 colon): 1.38 µM
- TGI (KM12 colon): 3.02 µM
- GI50 (SF-295 CNS): 1.87 µM
- TGI (SF-295 CNS): 7.23 µM
- GI50 (MDA-MB-231 breast): 1.61 µM
- TGI (MDA-MB-231 breast): 7.56 µM
- GI50 (OVCAR-5 ovarian): 7.18 µM
- TGI (OVCAR-5 ovarian): 21.3 µM
- GI50 (NCI-H460 lung): 1.99 µM
- TGI (NCI-H460 lung): 5.34 µM
- GI50 (OVCAR-8 ovarian): 5.85 µM
- TGI (OVCAR-8 ovarian): 23.3 µM
- GI50 (CAKI-1 renal): 2.54 µM
- TGI (CAKI-1 renal): 13.4 µM
- GI50 (HT29 colon): 0.723 µM
- TGI (HT29 colon): 5.67 µM
- GI50 (SK-MEL-5 melanoma): 10.8 µM
- TGI (SK-MEL-5 melanoma): 23.4 µM
- GI50 (NCI-H226 lung): 2.73 µM
- TGI (NCI-H226 lung): 10.9 µM
- GI50 (HCT-116 colon): 1.51 µM
- TGI (HCT-116 colon): 2.83 µM
- GI50 (LOX IMVI melanoma): 1.43 µM
- TGI (LOX IMVI melanoma): 2.77 µM
- GI50 (MALME-3M melanoma): 2.56 µM
- TGI (MALME-3M melanoma): 5.57 µM
